Data published in US11807650B2, “NMDA receptor modulators and uses thereof” (Novartis AG, priority 2016, dated 2023).

How the values were obtained:
[1] = biological target: T1, human GRIN1 (variant NR1-3) and GRIN2D expressed in HEK293 cells (Homo sapiens, UniProt O15399); experiment: GluN2D PAM CIQ fluorescence assay (Fluo-8 calcium, FDSS 6000); assay type: cell-based; details: relative to CIQ (100 uM) = 100%, read-out: NR2D Percent CIQ Avg Max Measured Effect
T1 construct: GenScript (GRIN2D synthesis) SC115601; host or cells: HEK293
Experimental: GluN2D PAM CIO Flourescence AssayHEK293 cells were transfected to express human GRIN1 (variant NR1-3, Origene, SKU #: SC115601, Rockville, Md.) and GRIN2D (NCBI locus NM_000836, sequence optimized and synthesized by GenScript) and grown as an adherent monolayer at 37° C., 5% CO2 in DMEM/Ham's F12+10% FBS (Hyclone SH3007.03T in the presence of 2.5 mM ARL-15896 (AdooQ Bioscience, Irvine Calif.). To prepare the cells for an experiment, they were rinsed with Dulbecco's PBS (Ca^2+ and Mg^2+ free) and detached from the flask with TrypLE™ Express (Life Technologies, Carlsbad, Calif.) using the manufacturer's recommended methods. Cells collected from the flask were washed twice in Ca^2+/Mg^2+-free Hanks Balanced Salt Solution+20 mM HEPES (HBSS), and counted and assessed for viability with trypan blue. Washed cells were then dye-loaded by resuspending in Fluo-8/AM calcium sensitive dye plus Component B (AAT Bioquest, Sunnyvale, Calif.) diluted in HBSS. To allow cells to take up fluo-8 dye, they were incubated in the dark for 15 min at 37° C., followed by 30 min at 22-25° C. After dye-loading, cells were washed and resuspended in HBSS and plated in 384-well plates (Falcon 353962; Corning, Big Flats, N.Y.) at 20,000-30,000 cells/well in a final volume of 25 μl/well. The cell plates were centrifuged at 200×g, for 2 minutes at 21° C., to create a monolayer of cells at the bottom of the wells.
To initiate an assay, 10 μl of test compound or buffer was added to each well of the cell plate and pre-incubated for 10 minutes in the dark. After 10 minutes, the cell plate was placed in a FDSS 6000 plate reader (Hamamatsu Photonics, Middlesex, N.J.); baseline fluorescence readings were collected for 20 seconds. Next, 25 μl of agonist solution (3 μM glutamate, 3 μM glycine, and 1 mM Ca^2+ in HBSS) was added and the change in fluorescence was recorded for 3 minutes.
Results were calculated by comparing the effects of test compounds to that of the literature standard GluN2C/D PAM CIQ (100 uM). The increase in fluorescence in the presence of CIQ minus the increase induced by glutamate+glycine alone was set to 100%. Responses induced by compounds that were larger than gain the presence of the standard concentration of CIQ were greater than 100% and lesser responses were less than 100%.

[2] = biological target: T2, human GRIN1 (transcript variant NR1-3) and GRIN2D expressed in Xenopus oocytes (Homo sapiens, UniProt O15399); experiment: NR2D oocyte potentiation assay (two-electrode voltage clamp); assay type: cell-based; details: 10 uM test compound; glutamate and glycine 10 μM each; holding potential −40 mV
T2 construct: GenScript (GRIN2D synthesis) SC115601; host or cells: Xenopus oocytes injected with cRNA (1 GluN1 : 2 GluN2)
How it was run: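 Xenopus oocytes were defolliculated with collagenase, then injected with 50 nL of cRNA encoding human GluN1 (NR1-3 variant) and GluN2D mixed 1:2 and kept 72 h at 16° C. Two-electrode voltage clamp at −40 mV recorded currents; after 10 μM glutamate plus 10 μM glycine reached plateau, test compound was added until a new plateau formed.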

T1 sequence (O15399 28-1336, other chains not shown): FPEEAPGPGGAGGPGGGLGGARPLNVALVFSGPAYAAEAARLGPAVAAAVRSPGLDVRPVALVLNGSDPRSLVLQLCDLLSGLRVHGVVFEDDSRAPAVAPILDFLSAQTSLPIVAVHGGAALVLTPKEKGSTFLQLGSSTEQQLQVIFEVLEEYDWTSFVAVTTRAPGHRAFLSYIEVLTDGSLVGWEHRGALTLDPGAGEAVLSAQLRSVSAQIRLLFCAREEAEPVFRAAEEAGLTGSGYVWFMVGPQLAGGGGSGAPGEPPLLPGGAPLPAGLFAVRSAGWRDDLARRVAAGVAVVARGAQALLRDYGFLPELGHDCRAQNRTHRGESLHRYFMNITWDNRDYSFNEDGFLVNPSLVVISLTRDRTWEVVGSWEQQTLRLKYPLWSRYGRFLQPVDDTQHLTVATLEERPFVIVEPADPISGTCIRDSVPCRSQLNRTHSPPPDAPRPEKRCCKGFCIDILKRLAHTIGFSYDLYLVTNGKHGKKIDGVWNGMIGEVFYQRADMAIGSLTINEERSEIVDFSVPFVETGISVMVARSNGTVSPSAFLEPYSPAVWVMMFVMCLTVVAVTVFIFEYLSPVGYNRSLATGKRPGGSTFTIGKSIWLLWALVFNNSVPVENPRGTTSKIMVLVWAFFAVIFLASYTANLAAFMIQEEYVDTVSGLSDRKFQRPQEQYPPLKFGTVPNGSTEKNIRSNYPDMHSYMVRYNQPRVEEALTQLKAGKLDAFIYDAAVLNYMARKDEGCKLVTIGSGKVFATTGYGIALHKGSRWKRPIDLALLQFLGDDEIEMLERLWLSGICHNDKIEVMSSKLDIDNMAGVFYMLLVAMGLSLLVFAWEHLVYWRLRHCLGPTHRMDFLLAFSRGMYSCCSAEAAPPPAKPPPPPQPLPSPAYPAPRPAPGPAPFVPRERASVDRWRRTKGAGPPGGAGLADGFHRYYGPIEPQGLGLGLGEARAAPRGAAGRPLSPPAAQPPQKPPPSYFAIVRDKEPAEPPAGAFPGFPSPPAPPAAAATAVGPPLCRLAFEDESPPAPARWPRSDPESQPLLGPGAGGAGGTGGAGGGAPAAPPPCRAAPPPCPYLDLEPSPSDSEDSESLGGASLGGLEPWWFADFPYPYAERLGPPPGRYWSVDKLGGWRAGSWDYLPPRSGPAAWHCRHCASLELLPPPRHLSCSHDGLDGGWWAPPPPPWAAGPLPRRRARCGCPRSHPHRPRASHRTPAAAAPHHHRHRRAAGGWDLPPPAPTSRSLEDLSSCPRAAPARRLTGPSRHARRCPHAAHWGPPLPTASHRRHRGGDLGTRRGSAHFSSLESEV
T2 sequence (O15399 28-1336, other chains not shown): as above

Row | Structure (SMILES) | Emax [1] | activation at 10 µM [2] | NR2D Oocyte % Potentiation @ 10 uM [2]
1 | C[C@H]1CSc2nc(-c3ccc(C(C)(C)C)nc3)c(C#N)c(=O)n2C1 [Example 44, (R)-8-(6-(tert-butyl)pyridin-3-yl)-3-methyl-6-oxo-3,4-dihydro-2H,6H-pyrimido[2,1-b][1,3]thiazine-7-carbonitrile] | 100 to 200% | 100 to 500% | 
2 | CC(C)c1ccc(-c2ccc(-c3nc4n(c(=O)c3C#N)CCCS4)c(F)c2)cc1 [Example 198, 8-{2-fluoro-4[4-(propan-2-yl)phenyl]phenyl}-6-oxo-2H,3H,4H,6H-pyrimido[2,1-b][1,3]thiazine-7-carbonitrile] | 10 to 50% | 10 to 100% | 
3 | COc1ccc(-c2nc3n(c(=O)c2C#N)CCS3)c(OC)c1 [Example 208, 7-(2,4-dimethoxyphenyl)-5-oxo-2H,3H,5H-[1,3]thiazolo[3,2-a]pyrimidine-6-carbonitrile] | 50 to 100% |  | Inhibitor
4 | N#Cc1c(-c2ccc(C3CC3)cc2)nc2n(c1=O)CCCS2 [Example 189, 8-(4-cyclopropylphenyl)-6-oxo-2H,3H,4H,6H-pyrimido[2,1-b][1,3]thiazine-7-carbonitrile] | 10 to 50% | 10 to 100% | 
5 | CC1CSc2nc(-c3ccc(C(C)(C)C)cc3)c(C#N)c(=O)n2C1 (centres unmarked) [Example 199, 8-(4-tert-butylphenyl)-3,4-dihydro-3-methyl-6-oxo-2H,6H-pyrimido[2,1-b][1,3]thiazine-7-carbonitrile] | 100 to 200% | > 1000% | 
6 | CC(C)c1ccc(-c2nc3n(c(=O)c2C#N)CCS3)cc1 [Example 206, 5-oxo-7-[4-(propan-2-yl)phenyl]-2H,3H,5H-[1,3]thiazolo[3,2-a]pyrimidine-6-carbonitrile] | 50 to 100% | 10 to 100% | 
7 | CC1CSc2nc(-c3cnc(C(C)(C)C)nc3)c(C#N)c(=N)n2C1 (centres unmarked) [Example 39, 8-(2-(tert-butyl)pyrimidin-5-yl)-6-imino-3-methyl-3,4-dihydro-2H,6H-pyrimido[2,1-b][1,3]thiazine-7-carbonitrile] | > 200% | > 1000% | 
8 | CC(C)(C)c1ncc(-c2nc3ccccn3c(=O)c2C#N)cn1 [Example 20, 2-(2-(tert-butyl)pyrimidin-5-yl)-4-oxo-4H-pyrido[1,2-a]pyrimidine-3-carbonitrile] | 100 to 200% | 100 to 500% | 
9 | Cc1ccc(-c2nc3n(c(=O)c2C#N)CCCS3)cc1 [Example 185, 8-(4-methylphenyl)-6-oxo-2H,3H,4H,6H-pyrimido[2,1-b][1,3]thiazine-7-carbonitrile] | 50 to 100% |  | 
10 | CSc1ccc(-c2nc3n(c(=O)c2C#N)CCS3)cc1 [Example 207, 7-[4-(methylsulfanyl)phenyl]-5-oxo-2H,3H,5H-[1,3]thiazolo[3,2-a]pyrimidine-6-carbonitrile] | 100 to 200% |  | 
11 | CC(C)(C)c1ccc(-c2nc3n(c(=O)c2C#N)CCCS3)s1 [Example 177, 8-(5-tert-butylthiophen-2-yl)-6-oxo-2H,3H,4H,6H-pyrimido[2,1-b][1,3]thiazine-7-carbonitrile] | 100 to 200% |  | 
12 | COc1ccccc1-c1nc2n(c(=O)c1C#N)CCCS2 [Example 188, 8-(2-methoxyphenyl)-6-oxo-2H,3H,4H,6H-pyrimido[2,1-b][1,3]thiazine-7-carbonitrile] | 10 to 50% |  | 
13 | N#Cc1c(-c2ccc(-c3ccccc3)cc2F)nc2n(c1=O)CCCS2 [Example 194, 3,4-dihydro-8-(2-fluoro-4-phenylphenyl)-6-oxo-2H,6H-pyrimido[2,1-b][1,3]thiazine-7-carbonitrile] | 10 to 50% |  | 
14 | CC(C)(C)c1ccc(-c2nc3scc(N)n3c(=O)c2C#N)cc1 [Example 210, 3-amino-7-(4-tert-butylphenyl)-5-oxo-5H-thiazolo[3,2-a]pyrimidine-6-carbonitrile] | 10 to 50% |  | 
15 | COc1ccc(-c2nc3n(c(=O)c2C#N)CCCS3)c(OC)c1 [Example 186, 8-(2,4-dimethoxyphenyl)-6-oxo-2H,3H,4H,6H-pyrimido[2,1-b][1,3]thiazine-7-carbonitrile] | 10 to 50% |  | 
